Assay results as given in ChEMBL document CHEMBL1145934, “Novel sst(4)-selective somatostatin (SRIF) agonists. 2. Analogues with beta-methyl-3-(2-naphthyl)alanine substitutions at position 8” (J Med Chem, 2003).

Key:
[1] = biological target: Somatostatin receptor type 3 (Homo sapiens, UniProt P32745); test: Binding affinity at human Somatostatin receptor type 3 by [125I][Leu8,D-Trp22,Tyr25]SRIF-28 displacement.
[2] = biological target: Somatostatin receptor type 2 (Homo sapiens, UniProt P30874); test: Binding affinity at human Somatostatin receptor type 2 by [125I][Leu8,D-Trp22,Tyr25]SRIF-28 displacement.
Somatostatin receptor type 2, sequence (P30874 whole entry): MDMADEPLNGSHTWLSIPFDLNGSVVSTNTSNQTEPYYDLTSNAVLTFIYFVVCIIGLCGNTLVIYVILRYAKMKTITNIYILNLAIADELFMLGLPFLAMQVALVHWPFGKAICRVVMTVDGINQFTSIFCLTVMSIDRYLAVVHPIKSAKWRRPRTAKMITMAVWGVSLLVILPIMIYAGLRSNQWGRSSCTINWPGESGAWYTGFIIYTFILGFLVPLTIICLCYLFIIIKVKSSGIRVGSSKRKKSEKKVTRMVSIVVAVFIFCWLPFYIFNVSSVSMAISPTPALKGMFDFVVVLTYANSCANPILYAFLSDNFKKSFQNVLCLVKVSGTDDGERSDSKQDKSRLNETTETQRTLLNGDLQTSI

[3] = biological target: Somatostatin receptor type 4 (Homo sapiens, UniProt P31391); test: Binding affinity at human Somatostatin receptor type 4 by [125I][Leu8,D-Trp22,Tyr25]SRIF-28 displacement.
Somatostatin receptor type 4, sequence (P31391 whole entry): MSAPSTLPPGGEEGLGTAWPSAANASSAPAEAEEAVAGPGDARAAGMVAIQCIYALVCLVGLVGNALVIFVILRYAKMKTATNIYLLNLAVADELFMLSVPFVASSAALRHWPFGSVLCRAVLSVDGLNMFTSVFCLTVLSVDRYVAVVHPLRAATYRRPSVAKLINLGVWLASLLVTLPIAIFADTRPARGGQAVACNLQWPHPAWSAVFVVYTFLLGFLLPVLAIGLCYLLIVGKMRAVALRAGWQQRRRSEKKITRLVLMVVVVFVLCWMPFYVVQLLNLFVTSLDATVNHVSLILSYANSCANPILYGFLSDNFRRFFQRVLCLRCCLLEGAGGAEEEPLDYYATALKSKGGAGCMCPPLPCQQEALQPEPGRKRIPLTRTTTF

[4] = biological target: Somatostatin receptor type 5 (Homo sapiens, UniProt P35346); test: Binding affinity at human Somatostatin receptor type 5 by [125I][Leu8,D-Trp22,Tyr25]SRIF-28 displacement.
Somatostatin receptor type 5, sequence (P35346 whole entry): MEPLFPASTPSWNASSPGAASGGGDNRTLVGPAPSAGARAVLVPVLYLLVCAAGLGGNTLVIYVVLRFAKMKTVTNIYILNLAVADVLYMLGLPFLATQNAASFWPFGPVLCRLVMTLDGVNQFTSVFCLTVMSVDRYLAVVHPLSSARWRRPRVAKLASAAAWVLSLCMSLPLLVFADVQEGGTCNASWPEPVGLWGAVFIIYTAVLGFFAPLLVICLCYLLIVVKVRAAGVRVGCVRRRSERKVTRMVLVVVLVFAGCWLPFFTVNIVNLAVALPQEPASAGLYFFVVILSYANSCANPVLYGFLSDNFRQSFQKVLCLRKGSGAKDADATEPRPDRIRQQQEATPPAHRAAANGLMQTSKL

[5] = biological target: Somatostatin receptor type 1 (Homo sapiens, UniProt P30872); test: Binding affinity at human Somatostatin receptor type 1 by [125I][Leu8,D-Trp22,Tyr25]SRIF-28 displacement.
Somatostatin receptor type 1, sequence (P30872 whole entry): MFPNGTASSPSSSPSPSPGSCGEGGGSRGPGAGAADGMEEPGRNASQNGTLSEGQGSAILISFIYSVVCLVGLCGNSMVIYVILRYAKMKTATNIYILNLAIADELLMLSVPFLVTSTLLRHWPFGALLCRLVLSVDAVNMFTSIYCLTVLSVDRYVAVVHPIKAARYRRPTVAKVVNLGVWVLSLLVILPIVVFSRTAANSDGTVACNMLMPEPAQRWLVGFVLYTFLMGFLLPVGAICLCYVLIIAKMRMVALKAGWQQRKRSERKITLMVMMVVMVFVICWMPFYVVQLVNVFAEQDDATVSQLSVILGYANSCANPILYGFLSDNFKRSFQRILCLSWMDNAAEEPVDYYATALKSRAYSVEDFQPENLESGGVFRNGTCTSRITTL

Somatostatin receptor type 3, sequence (P32745 whole entry): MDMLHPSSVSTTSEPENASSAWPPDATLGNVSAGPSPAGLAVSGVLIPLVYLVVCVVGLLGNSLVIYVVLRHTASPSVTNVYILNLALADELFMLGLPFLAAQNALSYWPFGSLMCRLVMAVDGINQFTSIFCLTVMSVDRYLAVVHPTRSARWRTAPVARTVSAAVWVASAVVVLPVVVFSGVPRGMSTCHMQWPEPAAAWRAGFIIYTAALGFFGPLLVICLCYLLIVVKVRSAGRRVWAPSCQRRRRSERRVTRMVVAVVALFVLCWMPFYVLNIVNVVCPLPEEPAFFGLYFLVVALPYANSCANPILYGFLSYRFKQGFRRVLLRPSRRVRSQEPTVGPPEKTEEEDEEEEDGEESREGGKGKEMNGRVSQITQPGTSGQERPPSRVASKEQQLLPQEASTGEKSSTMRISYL

Row | SMILES | IC50 [1] | IC50 [2] | IC50 [3] | IC50 [4] | IC50 [5]
1 | COC(=O)[C@H](CCCN=C(N)N)NC(=O)CCCc1c(-c2ccccc2)[nH]c2c(F)cc(F)cc12 | > 10000 nM | > 10000 nM |  |  | 
2 | C[C@H](c1ccc2ccccc2c1)[C@@H]1NC(=O)[C@H](Cc2ccc(O)cc2)NC(=O)[C@H](Cc2ccccc2)NC(=O)[C@@H](N)CSSC[C@@H](C(=O)O)NC(=O)[C@H](Cc2ccccc2)NC(=O)[C@H]([C@@H](C)O)NC(=O)[C@H](CCCCN)NC1=O | 18 nM | 30 nM | 2.2 nM | 17.5 nM | 410 nM
3 | C[C@@H](O)[C@H]1NC(=O)[C@H](CCCCN)NC(=O)[C@@H]([C@@H](C)c2ccc3ccccc3c2)NC(=O)[C@H](Cc2ccc(N)cc2)NC(=O)[C@@H](Cc2ccccc2)NC(=O)[C@H](N)CSSC[C@@H](C(=O)O)NC(=O)[C@H](Cc2ccccc2)NC1=O | > 1000 nM | 575 nM | 6.9 nM | > 10000 nM | > 10000 nM
4 | C[C@@H](O)[C@@H]1NC(=O)[C@H](CCCCN)NC(=O)[C@@H]([C@@H](C)c2ccc3ccccc3c2)NC(=O)[C@H](Cc2ccc(O)cc2)NC(=O)[C@H](Cc2ccccc2)NC(=O)[C@@H](N)CSSC[C@@H](C(=O)O)NC(=O)[C@H](Cc2ccccc2)NC1=O | > 10000 nM | > 1000 nM | 105 nM | > 1000 nM | > 1000 nM
5 | C[C@@H](O)[C@@H]1NC(=O)[C@H](CCCCN)NC(=O)[C@@H]([C@@H](C)c2ccc3ccccc3c2)NC(=O)[C@H](Cc2ccc(N)cc2)NC(=O)[C@H](Cc2ccccc2)NC(=O)[C@H](NC(=O)[C@@H](N)Cc2ccc(O)cc2)CSSC[C@@H](C(=O)O)NC(=O)[C@H](Cc2ccccc2)NC1=O | 171 nM | 204 nM | 9.8 nM | 127 nM | > 1000 nM
6 | C[C@@H](O)[C@@H]1NC(=O)[C@H](CCCCN)NC(=O)[C@@H]([C@@H](C)c2ccc3ccccc3c2)NC(=O)[C@H](Cc2ccc(O)cc2)NC(=O)[C@H](Cc2ccccc2)NC(=O)[C@H](N)CSSC[C@@H](C(=O)O)NC(=O)[C@H](Cc2ccccc2)NC1=O |  |  | 0.53 nM |  | 

Next, values leading:

Row | IC50 [1] | IC50 [2] | IC50 [3] | IC50 [4] | IC50 [5] | SMILES
7 | 600 nM | 110 nM | 2.1 nM | 147 nM | > 1000 nM | C[C@@H](O)[C@@H]1NC(=O)[C@H](CCCCN)NC(=O)[C@H]([C@@H](C)c2ccc3ccccc3c2)NC(=O)[C@H](Cc2ccc(O)cc2)NC(=O)[C@H](Cc2ccccc2)NC(=O)[C@@H](N)CSSC[C@@H](C(=O)O)NC(=O)[C@H](Cc2ccccc2)NC1=O
8 | 595 nM | 474 nM | 61 nM | > 1000 nM | > 1000 nM | C[C@H](c1ccc2ccccc2c1)[C@@H]1NC(=O)[C@H](Cc2ccc(N)cc2)NC(=O)[C@H](Cc2ccccc2)NC(=O)[C@H](NC(=O)[C@@H](N)Cc2ccc(O)cc2)CSSC[C@@H](C(=O)O)NC(=O)[C@H](Cc2ccccc2)NC(=O)[C@H]([C@@H](C)O)NC(=O)[C@H](CCCCN)NC1=O
9 | 186 nM | 102 nM | 8.7 nM | 101 nM | > 1000 nM | C[C@H](c1ccc2ccccc2c1)[C@@H]1NC(=O)[C@H](Cc2ccc(N)cc2)NC(=O)[C@@H](Cc2ccccc2)NC(=O)[C@H](N)CSSC[C@@H](C(=O)O)NC(=O)[C@H](Cc2ccccc2)NC(=O)[C@@H]([C@@H](C)O)NC(=O)[C@H](CCCCN)NC1=O
10 | > 1000 nM | > 10000 nM | > 1000 nM | > 10000 nM | > 10000 nM | C[C@H](c1ccc2ccccc2c1)[C@H]1NC(=O)[C@H](Cc2ccc(O)cc2)NC(=O)[C@@H](Cc2ccccc2)NC(=O)[C@H](N)CSSC[C@@H](C(=O)O)NC(=O)[C@H](Cc2ccccc2)NC(=O)[C@@H]([C@@H](C)O)NC(=O)[C@H](CCCCN)NC1=O
11 | 325 nM | 357 nM | 11.8 nM | 700 nM | > 1000 nM | C[C@@H](O)[C@H]1NC(=O)[C@H](CCCCN)NC(=O)[C@@H]([C@@H](C)c2ccc3ccccc3c2)NC(=O)[C@H](Cc2ccccc2)NC(=O)[C@@H](Cc2ccccc2)NC(=O)[C@H](N)CSSC[C@@H](C(=O)O)NC(=O)[C@H](Cc2ccc(O)cc2)NC1=O
12 | 12 nM | 16 nM | 9.2 nM | 47 nM | > 1000 nM | C[C@H](c1ccc2ccccc2c1)[C@@H]1NC(=O)[C@H](Cc2ccccc2)NC(=O)[C@@H](Cc2ccccc2)NC(=O)[C@H](N)CSSC[C@@H](C(=O)O)NC(=O)[C@H](Cc2ccc(O)cc2)NC(=O)[C@@H]([C@@H](C)O)NC(=O)[C@H](CCCCN)NC1=O
